Assay results as given in patent US10201583B2, “Antioxidant dietary supplement and related method” (priority 2012, dated 2019).

What was measured:
[1] = system: Antioxidant Response Element (ARE); test: ARE luciferase reporter assay in stably transfected HepG2 cells; type: cell-based, human; conditions: individual ingredient at the noted concentration, 48 h, control sulforaphane 10 μM
Description: The formulation including the blend of turmeric, quercetin and rosemary (TQR Blend, also referred to herein as Blend A) was tested to evaluate the ARE of the blend. In particular, the three individual ingredients, turmeric, quercetin and rosemary were tested by themselves and in combination as a blend. In the testing, a conventional assay for determining ARE was utilized. Generally, the assay included the human hepatocyte cell line HepG2 obtained from ATCC of Manassas, Va. that was stably transfected with a vector. The vector contained four repeats of the ARE DNA sequence ([…] ID NO: 1)) upstream of a minimal promoter using the firefly luciferase gene as a reporter. These cells were then treated with the individual ingredients turmeric, quercetin and rosemary, and the TQR Blend in varying concentrations for 48 hours in this and the other noted examples below. The human hepatocytes were lysed, the luciferase substrate, purchased from Biotium of Hayward, Calif., added, and the relative luminescence values were obtained for all samples. The results are shown as a % Response vs. Control. The control substance was sulforaphane at 10 μM.

[2] = system: HMOX-1 in bovine aortic endothelial cells; conditions: Motterlini et al. 2000; cited from earlier work

SMILES | % Response vs. Control in ARE assay ([1]; TQR Blend 50 μg/ml at 1:3:5) | % Response vs. Control in ARE assay ([1]; TQR Blend 60 μg/ml at 1:3:5) | % Response vs. Control in ARE assay ([1]; TQR Blend 70 μg/ml at 1:3:5) | % Response vs. Control in ARE assay ([1]; TQR Blend 80 μg/ml at 1:3:5) | induction of HMOX-1 in endothelial cells [2]
O=c1c(O)c(-c2ccc(O)c(O)c2)oc2cc(O)cc(O)c12 [quercetin] | about 50% | about 75% | about 80% | about 90% | 
COc1cc(/C=C/C(=O)CC(=O)/C=C/c2ccc(O)c(OC)c2)ccc1O [curcumin] |  |  |  |  | potent inducer of HMOX-1
